Source: patent publication US8956656B2, “Production of small particles” (Nano Fiber Matrices B.V., priority 2003, dated 2015)
Each block holds one compound with its values, some of them ahead of it.

Key:
Type in all cases: physicochemical
Gel test of gelators = conditions: 3 mg/mL in H2O
Method: Gel test: 0.3 mg/mL in H2O or PBS: clear gel; 0.5 mg/mL in H2O/DMSO (19:1): clear gel; 0.6 mg/mL in H2O/EtOH (19:1): clear gel; 25 mg/ml in EtOH: gel.
Gel test: 3 mg/mL in H2O: gel.
Gel test: 1.0 mg/mL in H2O: gel; acetone 7.0 mg/mL: clear gel.
Gel test: 3 mg/mL in H2O: clear gel.
Gel test: 3.0 mg/mL in H2O: gel

[1] = TEM analysis of particle size in gel or freeze-dried powder
Method: (§1) To a solution containing 4.6 mg (7.6×10^−3 mmol) of cHexAmMetOH gelator and 1.3 mg (3.8×10^−3 mmol) of danazol in 100 μL of DMSO, 900 μL of distilled water were quickly added. […] In a reference sample consisting only of danazol in 100 μL of DMSO and 900 μL of distilled water, rod-shaped danazol particles are 0.5-10 μm wide and 15-53 μm long.
as §1, with “7” for “4.6”, “cHexAmPheOCH2CH2OCH2CH2OH” for “cHexAmMetOH”
Example 6 was repeated but with an increased molar ratio of gelator to danazol, of 5:1.
To a solution containing 1.96 mg (2.9×10^−3 mmol) of cHexAm(PheAQ)(CH2CH2OCH2CH2OH)2 gelator and 1.0 mg (2.9×10^−3 mmol) of danazol in 50 μL of DMSO, 950 μL of distilled water were quickly added.
In a reference sample consisting only of danazol in 100 μL of DMSO to which 900 μL of distilled water was added, rod-shaped danazol particles were formed, which were 0.5-10 μm wide and 15-53 μm long.
Example 8 was repeated with an increased molar ratio of gelator to danazol (from 1:1 to 2:1).
Freeze-drying of a gel containing cHexAmPheOCH2CH2OCH2CH2OH and danazol in a 5:1 molar ratio, in DMSO/water mixture (50 μL/950 μL) yielded a dry powder of gelator and danazol.
Freeze-drying of a gel containing cHexAm(PheAQ)(CH2CH2O CH2CH2OH)2 and danazol in a 5:1 molar ratio, in DMSO/water (50 μL/950 μL) yielded a dry powder of gelator and danazol. […]

[2] = Optical microscopy of gels and reference solutions
Method: Furosemide, 5 mg, (15×10^−3 mmol), together with 12.5 mg (20×10^−3 mmol) of cHexAm(PheAmBn)(CH2CH2OCH2CH2OH)2 (A), or 12.9 mg (20×10^−3 mmol) of cHexAm(PheAmPhOMe)(CH2CH2OCH2CH2OH)2 (B), or 18.4 mg (20×10^−3 mmol) of cHexAmPheOCH2CH2OCH2CH2OH(C), were dissolved in 50 μL of propylene glycol, 50 μL of PEG400, and 900 μL of water by heating until a clear solution was obtained. As reference, a sample without gelator was prepared (D).
Danazol, 1 mg, (3×10^−3 mmol), together with 3.9 mg (6×10^−3 mmol) of cHexAm(PheAmAQ)(CH2CH2OCH2CH2OH)2 (A), or 5.4 mg (6×10^−3 mmol) of cHexAmPheOCH2CH2OCH2CH2OH (B), were dissolved in 50 μL of DMSO and 950 μL of distilled water by heating until a clear solution was obtained. As reference, a sample without gelator was prepared (C).
Cyclosporin A, 2.5 mg, (2.1×10^−3 mmol), together with 6.3 mg (10×10^−3 mmol) of cHexAm(PheAmBn)(CH2CH2OCH2CH2OH)2 (A) or 9.2 mg (10×10^−3 mmol) of cHexAmPheOCH2CH2OCH2CH2OH (B), were dissolved in 25 μL of propylene glycol, 25 μL of PEG400, and 450 μL of distilled water by heating until a clear solution was obtained. As reference, a sample without gelator was prepared (C).

[3] = Stability in time of pyrene particles in a gel (TEM)
Method: To determine the stability in time of pyrene particles in a gel, samples were prepared as in Example 3 and examined with TEM after 7 days, 18 days, 1 month and 2 months. As reference, samples containing only pyrene in DMSO/H2O (100 μL/900 μL) were also prepared. Moreover, to determine the effect of the gelator in solution, i.e. not of the gel, samples containing 4 mg (6.0×10^−3 mmol) of cHexAm(PheAQ)(CH2CH2OCH2CH2OH)2 gelator, 1.22 mg (6.0×10^−3 mmol) of pyrene, 100 μL of DMSO and 900 μL of 1N HCl were prepared. The presence of HCl causes the gelator to dissolve and therefore the sample remains a solution. All samples were kept at room temperature, in the dark. FIG. 1: after 7 days only very few particles, 37-185 nm, are present in the sample; after 18 days more particles, 30-190 nm, can be observed; after 1 month also some crystals, ˜150 nm, can be observed; after 2 months more crystals with sizes ranging from 80 to 200 nm are present. FIG. 2: after 7 days crystals, 0.2-3 μm, can be observed; after 18 days more of such crystals can be observed; after 1 month also larger crystals, 6 μm, can be seen; after 2 months more of such crystals can be observed. FIG. 3: after 7 days, 18 days or 1 month crystals, 0.4 to 9 μm, are present; after 2 months crystals, 2-12 μm, can be observed.

[4] = gel of cHexAm(PheAQ)(CH2CH2OCH2CH2OH)2, 1:1 molar
[5] = gel of cHexAm(PheAQ)(CH2CH2OCH2CH2OH)2, gelator:danazol 2:1
[6] = gel of cHexAm(PheAQ)(CH2CH2OCH2CH2OH)2, gelator:danazol 5:1
[7] = gel of cHexAmPheOCH2CH2OCH2CH2OH, 2:1 molar
[8] = gel of cHexAmPheOCH2CH2OCH2CH2OH, gelator:danazol 5:1
[9] = reference sample, only danazol in 100 μL DMSO and 900 μL water
[10] = FIG. 6 (b): gel of cHexAmPheOCH2CH2OCH2CH2OH, DMSO/water

SMILES: O=C(O)[C@@H]1C[C@H](C(=O)O)C[C@H](C(=O)N[C@@H](Cc2ccccc2)C(=O)NCc2ccccc2)C1 [cHex(AmPheAmBn)(COOH)2]
Gel test (Gel test of gelators): gel

SMILES: COc1ccc(NC(=O)[C@H](Cc2ccccc2)NC(=O)[C@@H]2C[C@H](C(=O)O)C[C@H](C(=O)O)C2)cc1 [cHex(AmPheAmPhOMe)(COOH)2]
Gel test (Gel test of gelators): clear gel

average size of danazol particles ([1]; freeze-dried powder of gel of cHexAm(PheAQ)(CH2CH2O CH2CH2OH)2, 5:1, DMSO/water 50/950 μL): 14-70 nm
width of very few rod-shaped danazol particles ([1]; freeze-dried powder of gel of cHexAmPheOCH2CH2OCH2CH2OH, 5:1): 500-900 nm
average size of danazol particles ([1]; freeze-dried powder of gel of cHexAmPheOCH2CH2OCH2CH2OH, 5:1, DMSO/water 50/950 μL): 20 nm
length of some rod-shaped danazol particles [1, 4]: 9 μm
width of some rod-shaped danazol particles [1, 4]: 0.7 μm
average size of danazol particles ([1]; gel of cHexAm(PheAQ)(CH2CH2OCH2CH2OH)2, 1:1 molar, DMSO/water 50/950 μL): 140-700 nm
average size of danazol particles [1, 5]: 28 nm
size of very few danazol particles [1, 5]: 10 μm
average size of danazol particles [1, 6]: 14 nm
size of some danazol particles [1, 6]: 400 nm
length of rod-shaped danazol particles ([1]; gel of cHexAmMetOH, 2:1 molar, DMSO/water 100/900 μL): 1-10 μm
length of rod-shaped danazol particles [1, 7]: 0.6-6 μm
width of rod-shaped danazol particles [1, 7]: 0.2-0.6 μm
average size of danazol particles [1, 8]: 20 nm
size of some danazol particles [1, 8]: approximately 200 nm
length of rod-shaped danazol particles [1, 9]: 15-53 μm
width of rod-shaped danazol particles [1, 9]: 0.5-10 μm
amorphous globular particles ([2]; FIG. 6 (a): gel of cHexAm(PheAmAQ)(CH2CH2OCH2CH2OH)2, DMSO/water): < 2 μm
amorphous globular particles [2, 10]: < 2 μm
some needle-shaped crystals (long axis) [2, 10]: 25-50 μm
rod-shaped crystals ([2]; FIG. 6 (c): reference without gelator, DMSO/water): 20-120 μm
SMILES: C#C[C@]1(O)CC[C@H]2[C@@H]3CCC4=Cc5oncc5C[C@]4(C)[C@H]3CC[C@@]21C [danazol]

butterfly-shaped crystals (long axis) ([2]; FIG. 5 (a): gel of cHexAm(PheAmBn)(CH2CH2OCH2CH2OH)2, PG/PEG400/water): ~25 μm
butterfly-shaped crystals (long axis) ([2]; FIG. 5 (b): gel of cHexAm(PheAmPhOMe)(CH2CH2OCH2CH2OH)2, PG/PEG400/water): ~25 μm
globular crystals ([2]; FIG. 5 (c): gel of cHexAmPheOCH2CH2OCH2CH2OH, PG/PEG400/water): ~25 μm
rod-shaped crystals (long axis) ([2]; FIG. 5 (d): reference without gelator, PG/PEG400/water): 25-250 μm
SMILES: NS(=O)(=O)c1cc(C(=O)O)c(NCc2ccco2)cc1Cl [furosemide]

SMILES: c1cc2ccc3cccc4ccc(c1)c2c34 [pyrene]
size of pyrene particles ([3]; gel of cHexAm(PheAQ)(CH2CH2OCH2CH2OH)2, DMSO/H2O, room temperature, dark, after 7 days (FIG. 1)): 37-185 nm
size of pyrene crystals ([3]; gel of cHexAm(PheAQ)(CH2CH2OCH2CH2OH)2, after 1 month (FIG. 1)): ~150 nm
size of pyrene particles ([3]; gel of cHexAm(PheAQ)(CH2CH2OCH2CH2OH)2, after 18 days (FIG. 1)): 30-190 nm
size of larger pyrene crystals ([3]; gelator in solution, DMSO/1N HCl, after 1 month (FIG. 2)): 6 μm
size of pyrene crystals ([3]; gelator in solution, DMSO/1N HCl, after 7 days (FIG. 2)): 0.2-3 μm
size of pyrene crystals ([3]; reference, only pyrene in DMSO/H2O, after 2 months (FIG. 3)): 2-12 μm
